One series deals with UGT1A9. The following applies: cited from earlier work.
Series [1] is described as follows: Plasma pharmacokinetics of ginsenosides in rats after 1-week repeated RGE. The following applies: LC-MS/MS, after RGE 1.5 g/kg/day po for 1 week. The procedure:
The rats were randomly divided into the control and RGE groups. The RGE group received a RGE suspension (1.5 g/mL/kg/day, in distilled water) for 7 days via oral gavage. The control group received distilled water for 7 days via oral gavage. After 1 h following the last RGE treatment, valsartan was injected intravenously to both groups via the tail vein at 1 mg/mL/kg (dissolved in DMSO: saline = 2:8, v/v). […] After centrifugation of the blood samples at 16,000× g for 10 min, aliquots (50 μL each) of plasma samples were stored at −80 °C until the analysis of ginsenosides and valsartan.
The residue was reconstituted with 100 μL of 70% methanol consisting of 0.1% formic acid. An aliquot (20 μL) from the sample was injected into the LC-MS/MS system.
After freezing the aqueous layer at −80 °C for 2 h, the upper organic layer was transferred to a clean tube and evaporated to dryness. […] An aliquot (20 μL) from the sample was injected into the LC-MS/MS system. The samples were eluted through an Omega Polar C18 column (2.1 mm × 100 mm, 3 µm particle size) (Phenomenex, Torrance, CA, USA) using a mobile phase consisting of 0.1% formic acid in water: 0.1% formic acid in methanol (15:85, v/v) at a flow rate of 0.2 mL/min.
Pharmacokinetic parameters were calculated from plasma concentration-time profile using non-compartment analysis of WinNonlin (version 5.1; Pharsights, Cary, NC, USA). The statistical significance was assessed by t-test using Statistical Package for the Social Sciences (version 24.0; SPSS Inc., Chicago, IL, USA).

The next series has as its system OATP1B1 and OATP1B3. Conditions: human ref 29, 30; cited from earlier work.
Series [2] in a line: in vivo. The following applies: rat, iv, 1 mg/kg. As for the experimental part: The rats were randomly divided into the control and rifampin groups. […] Quantification was performed in the selected reaction-monitoring mode at m/z 436.1 → 291.0 for valsartan and m/z 336.1 → 320.0 for berberine. […] The intraday and interday precision ranged from 1.80% to 9.23%.
The target of the next series is T1, OATP1B1 (Homo sapiens, UniProt Q9Y6L6).
T1 sequence (Q9Y6L6 1-691): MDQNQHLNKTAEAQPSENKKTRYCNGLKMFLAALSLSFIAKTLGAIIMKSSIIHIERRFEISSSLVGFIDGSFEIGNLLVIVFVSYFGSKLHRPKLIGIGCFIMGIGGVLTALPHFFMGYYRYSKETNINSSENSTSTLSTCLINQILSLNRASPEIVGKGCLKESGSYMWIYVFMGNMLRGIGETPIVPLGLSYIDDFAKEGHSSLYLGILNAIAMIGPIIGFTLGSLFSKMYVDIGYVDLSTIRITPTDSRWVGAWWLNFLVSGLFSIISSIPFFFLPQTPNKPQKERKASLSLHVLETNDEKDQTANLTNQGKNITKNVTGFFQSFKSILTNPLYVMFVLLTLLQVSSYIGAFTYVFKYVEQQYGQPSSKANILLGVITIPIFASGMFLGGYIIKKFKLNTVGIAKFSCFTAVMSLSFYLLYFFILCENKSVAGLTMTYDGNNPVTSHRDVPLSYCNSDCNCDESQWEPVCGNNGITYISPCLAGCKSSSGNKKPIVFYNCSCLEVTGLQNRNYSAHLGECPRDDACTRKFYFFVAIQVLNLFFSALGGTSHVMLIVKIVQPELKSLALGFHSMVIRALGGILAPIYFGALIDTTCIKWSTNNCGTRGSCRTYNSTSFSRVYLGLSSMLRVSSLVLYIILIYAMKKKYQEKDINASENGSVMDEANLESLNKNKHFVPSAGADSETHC
The series can be described thus: Valsartan uptake by HEK293-OATP1B1 cells versus mock cells. The series is classed as cell-based. Details: host or cells: HEK293. Conditions: 5 μM valsartan. The procedure: (§1) The uptake of valsartan 5 (μM)was measured for 5 min immediately after adding aliquots (100 μL) of HBSS containing 5 μM valsartan in the presence or absence of rifampin (1–100 μM) or tri-glycosylated PPD-type ginsenosides (Rb1, Rb2, and Rc; 0.1–100 μM) to the HEK293-mock cells and HEK293-OATP1B1 and –OAPT1B3 cells after aspirating pre-incubated HBSS. […] After the centrifugation of cell lysate samples (16,000× g, 5 min, 4 °C), aliquots (4 μL) of cell lysate samples were injected into LC-MS/MS system for the analysis of valsartan. Transporter mediated uptake of probe substrates or valsartan was calculated by subtracting the uptake rate of probe substrates or valsartan into HEK293-mock cells from that into HEK293 cells expressing respective transporters.

The next series has as its target T2, OATP1B3 (Homo sapiens, UniProt Q9NPD5).
T2 sequence (Q9NPD5 1-702): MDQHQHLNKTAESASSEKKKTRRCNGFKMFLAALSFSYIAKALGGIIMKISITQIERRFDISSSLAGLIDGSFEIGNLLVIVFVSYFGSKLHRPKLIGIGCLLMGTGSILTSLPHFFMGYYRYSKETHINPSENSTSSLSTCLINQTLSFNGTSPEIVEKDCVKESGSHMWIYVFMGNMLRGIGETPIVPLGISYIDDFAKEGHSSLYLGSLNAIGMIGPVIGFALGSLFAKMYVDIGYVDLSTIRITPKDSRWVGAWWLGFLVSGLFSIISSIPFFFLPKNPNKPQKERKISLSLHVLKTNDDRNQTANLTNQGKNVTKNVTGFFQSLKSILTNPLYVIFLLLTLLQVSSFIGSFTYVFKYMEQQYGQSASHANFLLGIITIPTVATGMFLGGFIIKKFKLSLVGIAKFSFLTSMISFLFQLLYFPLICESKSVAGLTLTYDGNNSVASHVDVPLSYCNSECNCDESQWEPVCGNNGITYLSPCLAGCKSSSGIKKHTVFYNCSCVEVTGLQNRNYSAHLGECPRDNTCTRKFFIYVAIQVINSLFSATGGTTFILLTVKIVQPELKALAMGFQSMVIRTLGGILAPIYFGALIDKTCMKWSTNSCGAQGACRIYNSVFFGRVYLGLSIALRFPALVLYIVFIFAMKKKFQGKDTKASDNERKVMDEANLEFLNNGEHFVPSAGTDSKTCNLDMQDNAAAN
The series can be described thus: Valsartan uptake by HEK293-OATP1B3 cells versus mock cells. The series is classed as cell-based. Set-up: host or cells: HEK293. The following applies: 5 μM valsartan. As for the experimental part: as §1

A further series has as its system Oatps. The following applies: rats ref 29, 30; cited from earlier work.
Series [3] in a line: Pharmacokinetics of iv valsartan in rats with or without repeated iv Rc. It counts as in vivo. Conditions: rat, plasma, 1 mg/kg, valsartan 1 mg/kg iv; for AUC(0-t): read-out: AUC24h. The procedure:
The rats were randomly divided into the control and Rc groups. The Rc group was injected with Rc solution (3 mg/mL/kg, dissolved in saline) intravenously via the tail vein for 5 consecutive days. The control group received saline (1 mL/kg) for 5 consecutive days via the tail vein. […] Quantification was performed in the selected reaction-monitoring mode at m/z 436.1 → 291.0 for valsartan and m/z 336.1 → 320.0 for berberine. […] The intraday and interday precision ranged from 1.80% to 9.23%.

Series [4] can be described thus: in vivo. Conditions: rat, iv, 1 mg/kg. As for the experimental part:
Quantification was performed in the selected reaction-monitoring mode at m/z 436.1 → 291.0 for valsartan and m/z 336.1 → 320.0 for berberine. […] The intraday and interday precision ranged from 1.80% to 9.23%.
This is another data set of the same source.

Setting [5] is: after Rc 3 mg/kg/day iv for 5 days.

As for `CC(C)=CCC[C@](C)(O[C@@H]1O[C@H](CO)[C@@H](O)[C@H](O)[C@H]1O)[C@H]1CC[C@]2(C)[C@@H]1[C@H](O)C[C@@H]1[C@@]3(C)CC[C@H](O)C(C)(C)[C@@H]3[C@@H](O)C[C@]12C` [F1], the “IC50 UGT1A9” value in the series with UGT1A9 is “did not inhibit”. Besides, the “detection in rat plasma” value in series [1] was “not detected”.
With `CC(C)=CCC[C@](C)(O[C@@H]1O[C@H](CO)[C@@H](O)[C@H](O)[C@H]1O)[C@H]1CC[C@]2(C)[C@@H]1[C@H](O)C[C@@H]1[C@@]3(C)CC[C@H](O[C@@H]4O[C@H](CO)[C@@H](O)[C@H](O)[C@H]4O)C(C)(C)[C@@H]3CC[C@]12C` [F2], in series [1], the “detection in rat plasma” value was “not detected”.
Turning to `CC(C)=CCC[C@](C)(O)[C@H]1CC[C@]2(C)[C@@H]1[C@H](O)C[C@@H]1[C@@]3(C)CC[C@H](O)C(C)(C)[C@@H]3[C@@H](O[C@@H]3O[C@H](CO)[C@@H](O)[C@H](O)[C@H]3O[C@@H]3O[C@H](CO)[C@@H](O)[C@H](O)[C@H]3O)C[C@]12C` [Rf], in the series on UGT1A9, the “IC50 UGT1A9” value is on record as “did not inhibit”.
For `CCCCC(=O)N(Cc1ccc(-c2ccccc2-c2nnn[nH]2)cc1)[C@H](C(=O)O)C(C)C` [Valsartan, valsartan], the “contribution of Oatp transporters in the hepato-biliary excretion” value is 70–85% in the series with OATP1B1 and OATP1B3; 70–85% in the series on Oatps. Further, the C0 in “in vivo [2]” amounted to 1633.08 ± 1308.67 ng/mL; in “in vivo [2]” (C0), 1170 ± 119 ng/mL; in series [3] (setting [5]), 1450 ± 998 ng/mL; in series [3] (control group of Rc study), 401 ± 77.8 ng/mL; in “in vivo [4]” it was 781.47 ± 211.04 ng/mL; in “in vivo [4]” (C0), 648 ± 50.5 ng/mL. Also, the mean residence time MRT in “in vivo [2]” is 3.37 ± 0.83 h; in the series “in vivo [2]” (MRT) it was 2.99 ± 0.47 h; in series [3] (setting [5]) it was 2.94 ± 1.52 h; in [3] (control group of Rc study), 2.27 ± 0.67 h; in “in vivo [4]”, 3.81 ± 0.05 h; in “in vivo [4]” (MRT) it was 3.76 ± 1.16 h. Besides, the T1/2 was 2.79 ± 0.32 h in the series “in vivo [2]” and 4.59 ± 0.73 h in the series “in vivo [4]”. Besides, the volume of distribution (Vd) was 0.05503 ± 0.02629 L/kg in “in vivo [2]”; 4.7 ± 1.54 L/kg in “in vivo [2]” (Vd); 3.46 ± 1.64 L/kg in series [3] (setting [5]); 3.43 ± 0.794 L/kg in [3] (control group of Rc study); 0.08538 ± 0.02582 L/kg in “in vivo [4]”; 4.33 ± 0.922 L/kg in the series “in vivo [4]” (Vd). Further, the clearance in “in vivo [2]” (CL) is 26 ± 6.3 mL/min/kg; in [3] (setting [5]), 20.2 ± 2.86 mL/min/kg; in series [3] (control group of Rc study), 25.7 ± 3.5 mL/min/kg; in the series “in vivo [4]” (CL) it was 20 ± 5.48 mL/min/kg. Besides, the half-life in “in vivo [2]” (T1/2) was 4.48 ± 1.24 h; in series [3] (setting [5]), 3.3 ± 1.51 h; in series [3] (control group of Rc study) it was 2.41 ± 1.3 h; in “in vivo [4]” (T1/2), 4.55 ± 0.98 h. On OATP1B1, the “Valsartan uptake increase, HEK293-OATP1B1 vs HEK293-mock” value was 19.8 fold. Further, the “Valsartan uptake increase, HEK293-OATP1B3 vs HEK293-mock” value on OATP1B3 was determined as 26.1 fold. In addition, the results for the total exposure AUC(0-inf) (in [3] (setting [5]); in series [3] (control group of Rc study); in “in vivo [4]” (AUC∞)) were 836 ± 112 ng·h/mL, 657 ± 84.9 ng·h/mL and 882 ± 247 ng·h/mL, respectively. The AUC(0-t) in series [3] (setting [5]) was determined as 809 ± 112 ng·h/mL; in series [3] (control group of Rc study) it was 639 ± 80.7 ng·h/mL; in “in vivo [4]” (AUC24h) it was 859 ± 234 ng·h/mL. The compound further gave an AUC24h in “in vivo [4]” of 776.59 ± 228.82 ng·h/mL.

The values are drawn from PMC7037682, “Herb–Drug Interaction of Red Ginseng Extract and Ginsenoside Rc with Valsartan in Rats” (Molecules, 2020).
